Assays:
Type in all cases: functional
[1] = system: Serratia marcescens; test: Antibacterial activity against Serratia marcescens isolate Sm2723 harboring IncL/M plasmid and blaIMP-4-qacG2-aacA4-catB3 array by Etest method in presence of clavulanic acid
[2] = system: Morganella morganii; test: Antibacterial activity against Morganella morganii isolate Mm1614 harboring IncL/M plasmid and blaIMP-4-qacG2-aacA4-catB3 array by Etest method in presence of clavulanic acid
[3] = system: Klebsiella pneumoniae; test: Antibacterial activity against Klebsiella pneumoniae Kp1239 transconjugant harboring IncL/M plasmid and blaIMP-4-qacG2-aacA4-catB3 array by Etest method in presence of clavulanic acid
[4] = system: Klebsiella pneumoniae; test: Antibacterial activity against Klebsiella pneumoniae Kp204 transconjugant harboring IncA/C plasmid and blaIMP-4-qacG2-aacA4-catB3 array by Etest method in presence of clavulanic acid
[5] = system: Citrobacter amalonaticus; test: Antibacterial activity against Citrobacter amalonaticus isolate Ca3927 harboring IncL/M plasmid and blaIMP-4-qacG2-aacA4-catB3 array by Etest method in presence of clavulanic acid
[6] = system: Klebsiella pneumoniae; test: Antibacterial activity against Klebsiella pneumoniae isolate Kp266 harboring IncA/C plasmid and blaIMP-4-qacG2-aacA4-catB3 array by Etest method in presence of clavulanic acid
[7] = system: Klebsiella pneumoniae; test: Antibacterial activity against Klebsiella pneumoniae isolate Kp38045 harboring IncL/M plasmid and blaIMP-4-qacG2-aacA4-catB3 array by Etest method in presence of clavulanic acid
[8] = system: Klebsiella pneumoniae; test: Antibacterial activity against Klebsiella pneumoniae Kp38009 transconjugant harboring IncL/M plasmid and blaIMP-4-qacG2-aacA4-catB3 array by Etest method in presence of clavulanic acid
[9] = system: Klebsiella pneumoniae; test: Antibacterial activity against Klebsiella pneumoniae isolate Kp38009 harboring IncL/M plasmid and blaIMP-4-qacG2-aacA4-catB3 array by Etest method in presence of clavulanic acid
[10] = system: Klebsiella pneumoniae; test: Antibacterial activity against Klebsiella pneumoniae isolate Kp204 harboring IncA/C plasmid and blaIMP-4-qacG2-aacA4-catB3 array by Etest method in presence of clavulanic acid
[11] = system: Serratia marcescens; test: Antibacterial activity against Serratia marcescens isolate Sm265 harboring IncA/C plasmid and blaIMP-4-qacG2-aacA4-catB3 array by Etest method in presence of clavulanic acid
[12] = system: Klebsiella pneumoniae; test: Antibacterial activity against Klebsiella pneumoniae isolate Kp7564 harboring IncL/M plasmid and blaIMP-4-qacG2-aacA4-catB3 array by Etest method in presence of clavulanic acid
[13] = system: Enterobacter cloacae; test: Antibacterial activity against Enterobacter cloacae El3799 transconjugant harboring IncL/M plasmid and blaIMP-4-qacG2-aacA4-catB3 array by Etest method in presence of clavulanic acid
[14] = system: Serratia marcescens; test: Antibacterial activity against Serratia marcescens Sm2723 transconjugant harboring IncL/M plasmid and blaIMP-4-qacG2-aacA4-catB3 array by Etest method in presence of clavulanic acid
[15] = system: Klebsiella oxytoca; test: Antibacterial activity against Klebsiella oxytoca isolate Ko238 harboring IncA/C plasmid and blaIMP-4-qacG2-aacA4-catB3 array by Etest method in presence of clavulanic acid
[16] = system: Escherichia coli; test: Antibacterial activity against Escherichia coli Ec221 transconjugant harboring IncA/C plasmid and blaIMP-4-qacG2-aacA4-catB3 array by Etest method in presence of clavulanic acid
[17] = system: Enterobacter cloacae; test: Antibacterial activity against Enterobacter cloacae isolate El3280 harboring IncL/M plasmid and blaIMP-4-qacG2-aacA4-catB3 array by Etest method in presence of clavulanic acid
[18] = system: Serratia marcescens; test: Antibacterial activity against Serratia marcescens isolate Sm211 harboring IncA/C plasmid and blaIMP-4-qacG2-aacA4-catB3 array by Etest method in presence of clavulanic acid
[19] = system: Acinetobacter; test: Antibacterial activity against Acinetobacter isolate A74510 harboring blaIMP-4-qacG2-aacA4-catB3 array by Etest method in presence of clavulanic acid
[20] = system: Enterobacter cloacae; test: Antibacterial activity against Enterobacter cloacae isolate El216 harboring IncA/C plasmid and blaIMP-4-qacG2-aacA4-catB3 array by Etest method in presence of clavulanic acid
[21] = system: Klebsiella oxytoca; test: Antibacterial activity against Klebsiella oxytoca isolate Ko1156 harboring IncL/M plasmid and blaIMP-4-qacG2-aacA4-catB3 array by Etest method in presence of clavulanic acid
[22] = system: Morganella morganii; test: Antibacterial activity against Morganella morganii Mm38009 transconjugant harboring IncL/M plasmid and blaIMP-4-qacG2-aacA4-catB3 array by Etest method in presence of clavulanic acid
[23] = system: Citrobacter freundii; test: Antibacterial activity against Citrobacter freundii isolate Cf1614 harboring IncL/M plasmid and blaIMP-4-qacG2-aacA4-catB3 array by Etest method in presence of clavulanic acid
[24] = system: Enterobacter cloacae; test: Antibacterial activity against Enterobacter cloacae El1573 transconjugant harboring IncL/M plasmid and blaIMP-4-qacG2-aacA4-catB3 array by Etest method in presence of clavulanic acid
[25] = system: Escherichia coli; test: Antibacterial activity against Escherichia coli isolate Ec211 harboring IncA/C plasmid and blaIMP-4-qacG2-aacA4-catB3 array by Etest method in presence of clavulanic acid
[26] = system: Citrobacter amalonaticus; test: Antibacterial activity against Citrobacter amalonaticus Ca3927 transconjugant harboring IncL/M plasmid and blaIMP-4-qacG2-aacA4-catB3 array by Etest method in presence of clavulanic acid
[27] = system: Serratia marcescens; test: Antibacterial activity against Serratia marcescens isolate Sm203 harboring IncA/C plasmid and blaIMP-4-qacG2-aacA4-catB3 array by Etest method in presence of clavulanic acid
[28] = system: Citrobacter youngae; test: Antibacterial activity against Citrobacter youngae isolate CyB38 harboring blaIMP-4-qacG2-aacA4-catB3 array by Etest method in presence of clavulanic acid
[29] = system: Morganella morganii; test: Antibacterial activity against Morganella morganii Mm1229 transconjugant harboring IncL/M plasmid and blaIMP-4-qacG2-aacA4-catB3 array by Etest method in presence of clavulanic acid
[30] = system: Enterobacter cloacae; test: Antibacterial activity against Enterobacter cloacae El3518 transconjugant harboring IncL/M plasmid and blaIMP-4-qacG2-aacA4-catB3 array by Etest method in presence of clavulanic acid
[31] = system: Enterobacter cloacae; test: Antibacterial activity against Enterobacter cloacae isolate El1573 harboring IncL/M plasmid and blaIMP-4-qacG2-aacA4-catB3 array by Etest method in presence of clavulanic acid
[32] = system: Morganella morganii; test: Antibacterial activity against Morganella morganii isolate Mm38009 harboring IncL/M plasmid and blaIMP-4-qacG2-aacA4-catB3 array by Etest method in presence of clavulanic acid
[33] = system: Klebsiella pneumoniae; test: Antibacterial activity against Klebsiella pneumoniae Kp38045 transconjugant harboring IncL/M plasmid and blaIMP-4-qacG2-aacA4-catB3 array by Etest method in presence of clavulanic acid
[34] = system: Klebsiella pneumoniae; test: Antibacterial activity against Klebsiella pneumoniae isolate Kp1239 harboring IncL/M plasmid and blaIMP-4-qacG2-aacA4-catB3 array by Etest method in presence of clavulanic acid
[35] = system: Citrobacter koseri; test: Antibacterial activity against Citrobacter koseri Ck211 transconjugant harboring IncA/C plasmid and blaIMP-4-qacG2-aacA4-catB3 array by Etest method in presence of clavulanic acid
[36] = system: Escherichia coli; test: Antibacterial activity against Escherichia coli isolate Ec221 harboring IncA/C plasmid and blaIMP-4-qacG2-aacA4-catB3 array by Etest method in presence of clavulanic acid

Measured: MIC

CC1(C)S[C@@H]2[C@H](NC(=O)[C@H](N)c3ccc(O)cc3)C(=O)N2[C@H]1C(=O)O [AMOXICILLIN]
> 16 µg/mL: all assays above

Reference: ChEMBL document CHEMBL1671859, “bla(IMP-4) in different genetic contexts in Enterobacteriaceae isolates from Australia” (2008)
